Article PMC5927461, “Activation of host transient receptor potential (TRP) channels by praziquantel stereoisomers” (PLoS Neglected Tropical Diseases, 2018)

Assays:
hTRPA1 [1] = target: T1, hTRPA1 (Homo sapiens, UniProt O75762); test: Single cell confocal Ca2+ imaging (fluo-4) in transfected HEK293 cells; format: cell-based; parameters: host or cells: HEK293 (ATCC CRL-1573.3), transient; settings: for Ca2+ response in hTRPA1 expressing cells: 100μM
Text: (§1) Human TRPM8 cDNA was a VersaClone from R&D Systems (RDC0188). Plasmids encoding human TRPA1 and human TRPV1 cDNA were purchased from DNASU plasmid repository (HsCD00080227 and HsCD00081472, respectively). The TRP channel coding sequences were subcloned into pCS2+ to introduce a COOH-term myc tag using the InFusion HD method (Clontech), HindIII/XhoI restriction enzymes (NEB) and the following primers: TRPM8 F–TGGGGACGTCGGAGC-aagctt-[…]; TRPM8 R–AAATCGATGGGATGC-ctcgag-[…]; TRPA1 F-GGACGTCGGAGC-aagctt- atgaagcgcagcctgagg; TRPA1 R-TCGATGGGATGC-ctcgag-[…]; TRPV1 F–GGACGTCGGAGC-aagctt-[…]; TRPV1 R-TCGATGGGATGC-ctcgag-cttctccccggaagcgg (where upper case specifies vector-specific sequences, italics indicate restriction sites, and lower case indicates TRP channel specific sequences). Primers are listed in a 5’ to 3’ orientation.
(§2) HEK293 cells (ATCC CRL-1573.3) were cultured in DMEM supplemented with 10% fetal bovine serum (FBS), penicillin (100 units/ml), streptomycin (100 μg/ml), and L-glutamine (290 μg/ml). Cells were transiently transfected (Lipofectamine LTX, Thermo Fisher) at a density of 2x10^6 cells per T-25 cell-culture flask with TRP channel cDNA. For Ca^2+ imaging assays, HEK293 cells were seeded onto 8-chambered coverglass slides (Thermo Fisher, 115411PK), at a density of 1x10^4 cells one day prior to imaging. Cells were washed twice with HBSS, and incubated with fluo-4-AM (4μM), pluronic F127 (0.4%) and probenecid (2.5mM) for 25 minutes at room temperature. Cells were then washed twice with HBSS, and left at room temperature (30 minutes) for de-esterification. Dishes were mounted on an Olympus IX81 microscope and fluorescence changes (λex = 488nM, λem = 513±15nm bandpass filter) monitored using a Yogokawa spinning disk confocal (CSU-X-M1N) and an Andor iXon Ultra 888 EMCCD camera.

hTRPM8 = hTRPM8 (Homo sapiens, UniProt Q7Z2W7); test: as above; format: cell-based; parameters: host or cells: HEK293 (ATCC CRL-1573.3), transient; settings: for cytoplasmic Ca2+ signal in TRPM8 expressing cells: menthol 300μM, ±PZQ 100μM, (R)-PZQ or (S)-PZQ 50μM
Text: as §1, §2

[2] = tested on: mouse mesenteric arteries; test: Wire myography, mesenteric artery strips precontracted with high K+ (KPSS); settings: for relaxation of KPSS-contracted vessel strips by TRPM8 agonists: wild type, menthol 300μM, icilin 50 μM, WS-12 50μM
hTRPC7 = target: T2, hTRPC7 (Homo sapiens, UniProt Q9HCX4); test: TRP channel panel primary screen (membrane potential dye, stable HEK line); format: cell-based; settings: 0.3-300μM; effects over the micromolar range
T2 sequence (Q9HCX4 1-862): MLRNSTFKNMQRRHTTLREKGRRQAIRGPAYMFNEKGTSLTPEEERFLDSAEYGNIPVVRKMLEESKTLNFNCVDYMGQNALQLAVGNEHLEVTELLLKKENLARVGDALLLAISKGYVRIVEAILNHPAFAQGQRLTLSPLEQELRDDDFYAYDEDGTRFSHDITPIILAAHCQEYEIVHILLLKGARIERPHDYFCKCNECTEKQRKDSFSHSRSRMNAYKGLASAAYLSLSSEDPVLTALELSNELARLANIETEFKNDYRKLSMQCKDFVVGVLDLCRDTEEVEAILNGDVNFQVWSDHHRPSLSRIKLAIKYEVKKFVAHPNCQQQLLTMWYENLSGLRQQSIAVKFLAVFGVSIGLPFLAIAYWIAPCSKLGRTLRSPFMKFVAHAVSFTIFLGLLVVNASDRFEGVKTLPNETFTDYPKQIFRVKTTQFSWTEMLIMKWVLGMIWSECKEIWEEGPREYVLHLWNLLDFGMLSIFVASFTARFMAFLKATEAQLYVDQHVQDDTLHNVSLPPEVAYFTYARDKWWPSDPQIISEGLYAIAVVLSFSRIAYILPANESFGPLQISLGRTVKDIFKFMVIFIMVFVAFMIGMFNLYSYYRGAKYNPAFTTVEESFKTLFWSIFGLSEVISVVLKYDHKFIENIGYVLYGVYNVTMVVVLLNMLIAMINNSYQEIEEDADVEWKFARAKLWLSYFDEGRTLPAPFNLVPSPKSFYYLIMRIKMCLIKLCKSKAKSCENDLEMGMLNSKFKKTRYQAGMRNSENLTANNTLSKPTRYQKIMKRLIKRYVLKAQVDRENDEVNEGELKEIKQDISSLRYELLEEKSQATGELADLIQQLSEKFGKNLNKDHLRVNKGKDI
Procedure: (§3) ±PZQ, (R)-PZQ and (S)-PZQ were screened against a panel of 17 human TRP channels (SB Drug Discovery, Glasgow). For all hTRPs, except for TRPM5, individual channel constructs were stably expressed in HEK cell lines. TRMP5 was expressed in a stable CHO cell line. In preparation for the assays, cells were trypsinized, counted and seeded (50,000 cells/well) in black, clear-bottomed 96 well plates and incubated overnight. The following day, cells were loaded with a fluorescent indicator (FLIPR Calcium 5 Assay kit for TRPA1, TRPV1, TRPV2, TRPV3, TRPV4, TRPV5, TRPC1, TRPM2, TRPM3 and TRPM8, or a membrane potential dye (FLIPR Membrane Potential Red Assay Kit for TRPC3, TRPC4, TRPC5, TRPC6, TRPC7, TRPM4 and TRPM5) prepared according to the manufacturer’s instructions in HEPES buffered Hank’s balanced salt solution (HBSS). Dye solution (10μl) was added to appropriate wells and incubated at 37°C for 1 hour. All assays were performed at room temperature. Compounds were tested at 0.3, 1, 3, 10, 30, 100μM and 300μM in triplicate in both agonist and antagonist mode to determine EC50 and IC50 values, which were compared with reference compounds. Compounds were screened at a final DMSO concentration of 0.5%. Plates were screened using a Flexstation (Molecular Devices, FX01138), monitoring fluorescence values every ~1.52 seconds. For ‘agonist mode’ testing, 10μl of the appropriate test compound, or standard agonist, was added after 20 seconds and fluorescence monitored for 2 minutes at λex = 485nm, λem = 525nm for Ca^2+ imaging and λex = 530nm, λem = 565nm for membrane potential measurements. For ‘antagonist mode’ testing, test compounds and standard inhibitors were added to appropriate wells and incubated for 10 minutes at room temperature prior to addition of standard agonist compound.

hTRPC3 = target: T3, hTRPC3 (Homo sapiens, UniProt Q13507); test: as above; format: cell-based; settings: 0.3-300μM; effects over the micromolar range
T3 sequence (Q13507 1-921): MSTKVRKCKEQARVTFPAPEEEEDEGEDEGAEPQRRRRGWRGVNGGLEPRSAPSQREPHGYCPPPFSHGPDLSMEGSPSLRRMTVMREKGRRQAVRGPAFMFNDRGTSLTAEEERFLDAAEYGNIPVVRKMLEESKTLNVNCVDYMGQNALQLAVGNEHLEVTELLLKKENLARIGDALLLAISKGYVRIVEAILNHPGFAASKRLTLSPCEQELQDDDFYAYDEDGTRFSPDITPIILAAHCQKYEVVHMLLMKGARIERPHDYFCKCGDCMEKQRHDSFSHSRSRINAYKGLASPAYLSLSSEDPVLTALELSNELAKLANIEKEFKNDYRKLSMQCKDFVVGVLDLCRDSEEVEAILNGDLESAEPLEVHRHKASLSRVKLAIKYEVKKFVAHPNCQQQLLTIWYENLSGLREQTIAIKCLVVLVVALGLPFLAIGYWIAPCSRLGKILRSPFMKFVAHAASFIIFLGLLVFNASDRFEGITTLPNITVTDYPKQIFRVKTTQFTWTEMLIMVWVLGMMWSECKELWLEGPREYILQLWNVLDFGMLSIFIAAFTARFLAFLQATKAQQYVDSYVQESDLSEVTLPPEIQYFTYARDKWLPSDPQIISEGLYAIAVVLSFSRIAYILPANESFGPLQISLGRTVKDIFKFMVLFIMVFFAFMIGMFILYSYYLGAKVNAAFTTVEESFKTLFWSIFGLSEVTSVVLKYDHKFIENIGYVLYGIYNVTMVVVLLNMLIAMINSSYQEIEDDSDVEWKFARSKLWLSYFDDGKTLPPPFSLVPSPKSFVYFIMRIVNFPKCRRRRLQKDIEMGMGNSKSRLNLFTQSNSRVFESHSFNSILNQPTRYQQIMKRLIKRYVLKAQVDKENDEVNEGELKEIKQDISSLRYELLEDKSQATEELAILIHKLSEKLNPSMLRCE
Procedure: as §3

hTRPA1 [3] = target: T1, hTRPA1; test: TRP channel panel primary screen (FLIPR Calcium 5, stable HEK line); format: cell-based; settings: 0.3-300μM; effects over the micromolar range
Procedure: as §3

[4] = tested on: untransfected HEK293 cells; test: Confocal Ca2+ imaging in untransfected HEK293 cells (control); format: cell-based, human; settings: menthol 300μM, ±PZQ 100μM, ACh 100μM, capsaicin 1μM, AITC 100μM
Procedure: as §2

[5] = tested on: mesenteric vessels isolated from a TRPM8 knockout mouse; test: Wire myography, KPSS-contracted mesenteric vessels from TRPM8 knockout mice; settings: TRPM8 KO; menthol 300μM, icilin 50μM, WS-12 50μM
TRPV1 = TRPV1 (Homo sapiens, UniProt Q8NER1); test: Single cell confocal Ca2+ imaging (fluo-4) in transfected HEK293 cells; format: cell-based; parameters: host or cells: HEK293 (ATCC CRL-1573.3), transient
Text: as §1, §2

Sequence of hTRPM8 (Q7Z2W7 whole entry): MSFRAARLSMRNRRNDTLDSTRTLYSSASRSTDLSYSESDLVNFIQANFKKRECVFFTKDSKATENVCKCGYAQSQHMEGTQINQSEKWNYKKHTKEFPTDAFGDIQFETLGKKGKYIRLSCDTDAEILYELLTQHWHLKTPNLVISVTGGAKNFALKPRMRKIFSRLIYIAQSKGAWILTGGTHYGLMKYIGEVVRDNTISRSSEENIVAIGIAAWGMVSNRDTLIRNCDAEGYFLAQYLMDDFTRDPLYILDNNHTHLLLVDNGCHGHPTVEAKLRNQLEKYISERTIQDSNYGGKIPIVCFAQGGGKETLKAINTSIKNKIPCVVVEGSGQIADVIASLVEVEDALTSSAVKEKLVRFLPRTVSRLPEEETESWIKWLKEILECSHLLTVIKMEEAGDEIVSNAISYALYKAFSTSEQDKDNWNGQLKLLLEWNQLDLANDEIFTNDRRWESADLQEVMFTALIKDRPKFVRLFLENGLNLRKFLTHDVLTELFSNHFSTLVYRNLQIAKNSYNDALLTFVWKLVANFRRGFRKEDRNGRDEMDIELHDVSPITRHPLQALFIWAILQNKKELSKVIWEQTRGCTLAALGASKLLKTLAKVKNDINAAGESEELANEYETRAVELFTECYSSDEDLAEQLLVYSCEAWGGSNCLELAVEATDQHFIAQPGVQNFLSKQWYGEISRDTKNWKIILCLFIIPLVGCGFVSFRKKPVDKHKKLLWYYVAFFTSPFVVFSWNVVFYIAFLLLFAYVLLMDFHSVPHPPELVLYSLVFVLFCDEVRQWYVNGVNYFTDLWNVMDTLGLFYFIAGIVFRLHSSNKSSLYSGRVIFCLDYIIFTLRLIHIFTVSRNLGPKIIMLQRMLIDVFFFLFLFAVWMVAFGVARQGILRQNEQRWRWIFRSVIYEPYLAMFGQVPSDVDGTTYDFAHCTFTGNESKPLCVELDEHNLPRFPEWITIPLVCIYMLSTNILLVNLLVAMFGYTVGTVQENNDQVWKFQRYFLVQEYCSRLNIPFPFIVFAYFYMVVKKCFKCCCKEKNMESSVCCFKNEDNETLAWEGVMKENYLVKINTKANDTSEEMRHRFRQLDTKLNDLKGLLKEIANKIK
T1 sequence (O75762 whole entry, the tested form may be a part): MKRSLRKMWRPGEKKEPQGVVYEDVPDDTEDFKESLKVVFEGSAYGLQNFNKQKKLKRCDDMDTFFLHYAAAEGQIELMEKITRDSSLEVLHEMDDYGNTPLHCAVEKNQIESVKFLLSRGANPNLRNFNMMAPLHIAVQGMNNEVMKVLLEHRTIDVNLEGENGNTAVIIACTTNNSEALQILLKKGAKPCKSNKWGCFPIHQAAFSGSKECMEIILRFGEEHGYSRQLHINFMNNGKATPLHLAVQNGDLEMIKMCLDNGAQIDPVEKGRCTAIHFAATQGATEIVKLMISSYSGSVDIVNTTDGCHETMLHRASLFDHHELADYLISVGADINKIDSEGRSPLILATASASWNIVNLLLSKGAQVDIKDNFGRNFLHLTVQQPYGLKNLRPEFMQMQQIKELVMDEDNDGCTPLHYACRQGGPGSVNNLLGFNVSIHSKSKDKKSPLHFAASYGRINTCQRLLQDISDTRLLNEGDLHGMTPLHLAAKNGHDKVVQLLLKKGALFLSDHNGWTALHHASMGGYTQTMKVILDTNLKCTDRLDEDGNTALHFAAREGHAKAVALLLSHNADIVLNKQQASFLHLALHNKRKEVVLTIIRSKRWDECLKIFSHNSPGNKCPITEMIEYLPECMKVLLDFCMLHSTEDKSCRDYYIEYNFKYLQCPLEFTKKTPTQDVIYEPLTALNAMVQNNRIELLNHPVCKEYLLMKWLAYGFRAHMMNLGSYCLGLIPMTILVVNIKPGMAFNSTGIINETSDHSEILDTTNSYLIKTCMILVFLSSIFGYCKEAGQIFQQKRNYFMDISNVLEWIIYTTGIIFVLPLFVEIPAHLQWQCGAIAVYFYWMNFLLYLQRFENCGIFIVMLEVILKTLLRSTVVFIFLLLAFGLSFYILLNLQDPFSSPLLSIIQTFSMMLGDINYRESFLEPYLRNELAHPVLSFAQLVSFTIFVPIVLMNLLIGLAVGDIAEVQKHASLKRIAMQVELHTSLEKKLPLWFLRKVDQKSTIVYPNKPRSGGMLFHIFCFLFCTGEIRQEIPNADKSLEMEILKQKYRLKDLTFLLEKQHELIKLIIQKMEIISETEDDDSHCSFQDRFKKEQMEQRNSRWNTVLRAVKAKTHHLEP
Sequence of TRPV1 (Q8NER1 whole entry): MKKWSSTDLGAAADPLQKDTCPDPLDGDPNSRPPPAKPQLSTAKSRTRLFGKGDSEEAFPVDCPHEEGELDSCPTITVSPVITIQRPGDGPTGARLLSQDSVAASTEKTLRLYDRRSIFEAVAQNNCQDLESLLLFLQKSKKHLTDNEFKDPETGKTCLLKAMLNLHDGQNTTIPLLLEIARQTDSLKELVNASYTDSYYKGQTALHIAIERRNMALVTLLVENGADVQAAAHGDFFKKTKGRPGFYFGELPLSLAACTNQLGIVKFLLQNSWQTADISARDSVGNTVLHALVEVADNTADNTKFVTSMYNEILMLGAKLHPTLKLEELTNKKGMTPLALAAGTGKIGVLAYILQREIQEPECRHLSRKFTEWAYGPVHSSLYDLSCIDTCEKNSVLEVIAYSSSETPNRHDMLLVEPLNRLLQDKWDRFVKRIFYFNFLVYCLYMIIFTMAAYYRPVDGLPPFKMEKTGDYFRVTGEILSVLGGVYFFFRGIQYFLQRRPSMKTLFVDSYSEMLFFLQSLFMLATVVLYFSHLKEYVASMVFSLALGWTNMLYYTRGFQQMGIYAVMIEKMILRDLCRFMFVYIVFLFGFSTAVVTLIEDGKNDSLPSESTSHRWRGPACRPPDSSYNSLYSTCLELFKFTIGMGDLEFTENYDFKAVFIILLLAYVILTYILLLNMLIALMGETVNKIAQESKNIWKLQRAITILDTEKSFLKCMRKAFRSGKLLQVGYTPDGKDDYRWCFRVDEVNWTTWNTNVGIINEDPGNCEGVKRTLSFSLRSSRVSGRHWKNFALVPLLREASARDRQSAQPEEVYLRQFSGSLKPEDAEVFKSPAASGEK

With O=C(C1CCCCC1)N1CC(=O)N2CCc3ccccc3[C@@H]2C1 [(R)-PZQ] the “Ca2+ response in hTRPA1 expressing cells” value (hTRPA1 [1]) was “activation of hTRPA1”, the “cytoplasmic Ca2+ signal in TRPM8 expressing cells” value (hTRPM8) was “without effect” and the “change in tension of KPSS-precontracted vessels” value ([2]; 50μM, bath application during KPSS-evoked contraction) was “initial, small contraction”. The “activity at hTRPC7 in primary screen” value (hTRPC7) was “activated”, the “activity at hTRPC3 in primary screen” value (hTRPC3) was “activated” and the “activity at hTRPA1 in primary screen” value (hTRPA1 [3]) was “activated”.
In the case of CC(=O)OCC[N+](C)(C)C [ACh, acetylcholine], the “Ca2+ response in untransfected HEK293 cells” value [4] was “caused Ca^2+ transients”.
C=CCN=C=S [AITC, allyl isothiocyanate] was tested, and the “Ca2+ response in hTRPA1 expressing cells” value (hTRPA1 [1]) was “elevation of cytoplasmic Ca^2+” and the “Ca2+ response in untransfected HEK293 cells” value [4] was “without effect”.
With Cn1cnc2ncn(Cc3nc(CCc4ccc(Cl)cc4)no3)c(=O)c21 [AM-0902] the “block of AITC-evoked Ca2+ elevation” value (hTRPA1 [1]; preincubation, 1μM) was “blocked” and the “block of ±PZQ-evoked Ca2+ responses” value (hTRPA1 [1]; preincubation, 1μM) was “blocked”.
In the case of Cc1cccc(COc2ccccc2C(=O)N(CCCN)Cc2cccs2)c1 [AMTB], the “block of Ca2+ transients evoked by (S)-PZQ or menthol” value (hTRPM8; AMTB 10μM added 30min before agonists) was “blocked”.
In the case of COc1ccc(NC(=O)[C@@H]2C[C@H](C)CC[C@H]2C(C)C)cc1 [WS-12], the “relaxation of KPSS-contracted vessel strips by TRPM8 agonists” value (“relaxation” below) [2] was “completely relaxed” and the “vasorelaxant effect in TRPM8 KO background” value (“vasorelaxant effect” below) [5] was “persisted”.
COc1cc(CNC(=O)CCCC/C=C/C(C)C)ccc1O [capsaicin] was tested, and the “Ca2+ signal in TRPV1 expressing cells” value (TRPV1; capsaicin 1μM, ±PZQ 100μM) was “evoked Ca^2+ signals” and the “Ca2+ response in untransfected HEK293 cells” value [4] was “neither the addition of the TRPV1 agonist capsaicin (1μM) nor addition of ±PZQ evoked a Ca^2+ response”.
For Oc1cc2c(cc1O)CN(C(=S)NCCc1ccc(Cl)cc1)CCC2 [capsazepine], the “block of capsaicin-evoked Ca2+ signals” value (TRPV1; capsazepine 10μM) was “blocked”.
In the case of O=C1NC(c2cccc([N+](=O)[O-])c2)=CCN1c1ccccc1O [icilin], the “relaxation” value [2] was “completely relaxed” and the “vasorelaxant effect” value [5] was “persisted”.
In the case of CC1CCC(C(C)C)C(O)C1 (stereo not drawn) [menthol], the “menthol-evoked Ca2+ signals in Ca2+-free media” value (hTRPM8; 300μM, Ca2+-free media) was “not observed”, the “cytoplasmic Ca2+ signal in TRPM8 expressing cells” value (hTRPM8) was “rapidly elevated cytoplasmic Ca^2+” and the “relaxation” value [2] was “completely relaxed”. The “vasorelaxant effect” value [5] was “persisted” and the “Ca2+ response in untransfected HEK293 cells” value [4] was “neither ±PZQ or menthol elevated cytoplasmic Ca^2+ levels”.
